The target in data set [1] is T1, PSMA (Homo sapiens, UniProt Q04609).
T1 construct: host or cells: LNCaP human prostate carcinoma cells
Put plainly: Direct binding affinity on LNCaP cells (saturation). As to conditions: [99mTc]TcO complex of the listed compound, saturation 0.3-40 nM, 1 h 37° C., mean ± SEM, read-out: Kd [nM] of [99mTc]TcO-complexes. As to the method:
(§1) Competition, saturation and internalization assays were assessed using the high PSMA expressing human prostate carcinoma cell line LNCaP (ATCC® CRL-1740). The cells were grown as monolayer at 37° C. in a humidified atmosphere comprising 5% CO2 and 95% air in RPMI medium including 10% FCS (Merck KGAA, Germany). After washing the confluent cells twice with phosphate buffered saline (PBS) and detaching them with trypsin/EDTA (0.05%/0.02%), the cells were suspended in medium and counted (Casy TT, Omni Life Science, Germany).
For saturation monolayer of LNCaP cells were seeded, 5×10^4 cells/well in 48-well plates two days before the assay. On the day of saturation, after aspirating the medium, 160 μL of medium (for ^99mTc-labeled radioligand with D-mannitol (1 mg/mL)) were pipetted per well, for non-specific binding samples including 100 μM 2-PMPA. After preincubation for 5 min, 40 μL activity ([^68Ga]Ga-PSMA-11 or ^99mTc-labeled radioligand solution) were added (total volume/well: 200 μL). Eight concentrations ranged between 0.3 and 40 nM.
(§2) After 1 hour of incubation at 37° C. both for competition and saturation samples, the supernatants were aspirated and the cells washed twice with cold PBS. The cell lawn was lysed with 500 μL NaOH/SDS (0.1 M/1%) by shaking for 3 to 5 minutes. After transferring the lysates into measuring tubes, the activity of the samples was measured in a gamma counter (2480 Automatic Gamma Counter Wizard 2, Perkin Elmer, USA).
(§3) The half maximal inhibitory concentrations (IC50) and the dissociations constants (Kd) were calculated by fitting the data using a nonlinear curve-fitting program (GraphPad Prism 9). With the Kd value of [^68Ga]Ga-PSMA-11 on LNCaP and the known concentration of [^68Ga]Ga-PSMA-11 in the competition assay the inhibition constants (Ki) was also determined with the curve-fitting program.

Data set [2] has as its target T1, PSMA. Put plainly: Competitive binding affinity on LNCaP cells against [68Ga]Ga-PSMA-11 (competition). The following applies: natRe complex of the listed compound, 1 nM [68Ga]Ga-PSMA-11, 1 h 37° C., mean ± SEM. As to the method:
as §1
For competition monolayer of LNCaP cells were seeded, 1×10^5 cells/well in 24-well plates two days before the assay. On the day of competition, after aspirating the medium, 100 μL of PBS and, for competition 100 μL of different concentrations of the test compound in PBS (10^−12 to 10^−6 M) were pipetted into the wells, simultaneously to 400 μL of medium including 1 nM of [^68Ga]Ga-PSMA-11.
as §2, §3

For data set [3], the system named is subcutaneous LNCaP tumor xenografts. Put plainly: SPECT/CT and PET/CT imaging in LNCaP tumor bearing mice. Type of data set: in vivo. The following applies: LNCaP xenograft model. As to the method:
A prostate cancer xenograft model was generated via subcutaneous injection of human LNCaP cells into the right shoulder of 8-12 week-old male nude mice (Rj:NMRI-Foxn1^nu/nu, Janvier Labs, Le Genest-Saint-Isle, France). Imaging studies were performed when tumors reached a diameter of >6 mm. General anesthesia was induced and maintained with inhalation of 10% (v/v) desflurane in […] oxygen/air. During anesthesia, animals were continuously warmed at 37° C.
Small animal single-photon emission computed tomography (SPECT) was performed using the nanoSPECT/CT scanner (Mediso Medical Imaging Systems) equipped with an APT63 aperture consisting of four M3 multi-pinhole collimators. Each animal received 30 MBq of ^99mTc-labeled compounds delivered in 0.2 mL of Dulbecco's phosphate-buffered saline as a single intravenous injection through a tail vein catheter. Photon emission was recorded using frame times of 60 s (1 h scan: 40-70 min), 90 s (4 h scan, 3.5-4.5 h), and 320 s (20 h scan, 18.5-21.5 h), and binned simultaneously within the 20% energy window of the 140.5 keV photopeak. With each SPECT scan, a corresponding CT image was recorded and used for anatomical referencing and attenuation correction. SPECT images were reconstructed using the Tera-Tomo™ three-dimensional (3D) algorithm at normal range with a voxel size of 0.4 mm and applying corrections for scatter attenuation, and decay.
Small animal positron emission tomography (PET) was performed using the nanoPET/CT scanner (Mediso Medical Imaging Systems). Each animal received 10 MBq of the radiolabeled reference compound [^68Ga]Ga-PSMA-11 delivered in Dulbecco's phosphate-buffered saline as a single intravenous injection through a tail vein catheter. Emission of the 511 keV annihilation photons was recorded continuously at a coincidence mode of 1:5 for 60 min following radiotracer injection. With each PET scan, a corresponding CT image was recorded and used for anatomical referencing and attenuation correction. Three-dimensional list mode data were binned using the 400-600 keV energy window. PET images of the 40-60 min time frame were reconstructed using the Tera-Tomo™ three-dimensional (3D) algorithm with a voxel size of 0.4 mm and applying corrections for random events, scatter, attenuation, and decay.
Three-dimensional VOIs were created applying fixed threshold for delineation of tumor (30%), muscle (0%); and kidneys (39%). Standardized uptake values (SUV=[MBq detected activity/mL tissue]/[MBq injected activity/g body weight], mL/g) were determined and reported as max SUV (VOI-maximum). Time-activity curves were generated and further analyzed using Prism (GraphPad Software, San Diego CA, USA).

Where [4] appears, read: as early as 1 hour after injection.

The values below come from US20250319213A1, “FUNCTIONALIZED BISAMINOTHIOL DERIVATIVES, COMPLEXES WITH THESE BISAMINOTHIOL DERIVATIVES AND USE OF SAID COMPLEXES AS DIAGNOSTICS AND THERAPEUTICS” (ABX ADVANCED BIOCHEMICAL COMPOUNDS – BIOMEDIZINISCHE …, priority 2022, published 2025).

T1 sequence (Q04609 whole entry): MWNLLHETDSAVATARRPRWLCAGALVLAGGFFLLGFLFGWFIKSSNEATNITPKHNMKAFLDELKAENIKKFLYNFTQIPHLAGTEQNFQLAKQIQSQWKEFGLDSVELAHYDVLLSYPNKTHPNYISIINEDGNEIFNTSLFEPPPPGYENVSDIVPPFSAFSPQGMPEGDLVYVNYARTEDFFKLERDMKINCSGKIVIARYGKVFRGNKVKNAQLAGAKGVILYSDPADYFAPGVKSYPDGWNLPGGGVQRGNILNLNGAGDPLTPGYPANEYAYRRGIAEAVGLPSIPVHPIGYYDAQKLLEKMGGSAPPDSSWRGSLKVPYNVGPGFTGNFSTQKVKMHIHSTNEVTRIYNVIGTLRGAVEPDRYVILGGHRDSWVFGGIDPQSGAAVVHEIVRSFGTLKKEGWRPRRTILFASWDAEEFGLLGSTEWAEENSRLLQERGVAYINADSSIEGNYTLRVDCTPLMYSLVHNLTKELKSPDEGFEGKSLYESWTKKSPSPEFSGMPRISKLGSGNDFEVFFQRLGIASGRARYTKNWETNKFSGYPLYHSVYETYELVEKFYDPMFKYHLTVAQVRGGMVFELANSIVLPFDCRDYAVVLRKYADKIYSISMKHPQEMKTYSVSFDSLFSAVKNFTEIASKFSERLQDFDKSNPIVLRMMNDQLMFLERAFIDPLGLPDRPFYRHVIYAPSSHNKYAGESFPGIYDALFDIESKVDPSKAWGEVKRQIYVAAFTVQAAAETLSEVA

A word on the Kd: it is the constant that tells how readily two partners part at equilibrium. As a reminder, the Ki is the dissociation constant of the complex between target and ligand, obtained from inhibition or displacement. Low readings indicate tighter binding, high ones weaker binding. Turning to `CC(C)(S)CNCCN(CCCCC(=O)N[C@@H](CCC(=O)O)C(=O)N[C@@H](CCC(=O)O)C(=O)N[C@H](CCCCNC(=O)CCCCCCC(=O)NCCCC[C@H](NC(=O)N[C@@H](CCC(=O)O)C(=O)O)C(=O)O)C(=O)O)CC(C)(C)S` [Compound 5], the equilibrium dissociation constant (Kd) at PSMA [1] stood at 7.2 ± 1.7 nM. In addition, at PSMA [2], the affinity corresponds to a Ki of 9.3 ± 0.9 nM. Further, in data set [3], the “pharmacokinetic properties and organ distribution compared to the prior art” value was “faster pharmacokinetic properties and a more favorable organ distribution”. For the same compound, in data set [3] (setting [4]), the tumor-to-kidney ratio entry is “High” and the tumor-to-muscle ratio entry was “High”.
